Patent EP0377642B1, “HERBICIDES FOR WEED CONTROL IN RICE” (E.I. DU PONT DE NEMOURS AND COMPANY, priority 1987, dated 1989)

Experiments:
rice = assay: Herbicidal efficacy in relation to application timing in Indonesia (Table 5); format: in vivo
Source text: (§1) Methyl 2-[[[[(4-methoxy-6-methyl-1,3,5-triazin-2-yl)amino]carbonyl]amino]sulfonyl]benzoate (Compound 1) and mixtures thereof with other compounds were applied as a spray (using a hand sprayer) to rice (either transplanted or direct seeded) in several rice growing areas in Southeast Asia and in the U.S. Tables 1-28 contain the results of these tests and clearly exemplify the utility of this invention. The details of each application are included in the appropriate table. [drawing 2]

PS = assay: as above; format: in vivo
Source text: as §1

## COC(=O)c1ccccc1S(=O)(=O)NC(=O)Nc1nc(C)nc(OC)n1 [Compound 1, Methyl 2-[[[[(4-methoxy-6-methyl-1,3,5-triazin-2-yl)amino]carbonyl]amino]sulfonyl]benzoate]
rice; 3 WAT, 2 GAI/HA, evaluation 1
  % CONTROL RICE: 0%
rice; 3 WAT, 2 GAI/HA, evaluation 2
  % CONTROL RICE: 0%
rice; 3 WAT, 2 GAI/HA, evaluation 3
  % CONTROL RICE: 0%
rice; 3 WAT, 3 GAI/HA, evaluation 1
  % CONTROL RICE: 0%
rice; 3 WAT, 3 GAI/HA, evaluation 2
  % CONTROL RICE: 0%
rice; 3 WAT, 3 GAI/HA, evaluation 3
  % CONTROL RICE: 0%
rice; 3 WAT, 4 GAI/HA, evaluation 1
  % CONTROL RICE: 0%
rice; 3 WAT, 4 GAI/HA, evaluation 2
  % CONTROL RICE: 0%
rice; 3 WAT, 4 GAI/HA, evaluation 3
  % CONTROL RICE: 0%
rice; 3 WAT, 6 GAI/HA, evaluation 1
  % CONTROL RICE: 0%
rice; 3 WAT, 6 GAI/HA, evaluation 2
  % CONTROL RICE: 0%
rice; 3 WAT, 6 GAI/HA, evaluation 3
  % CONTROL RICE: 0%
rice; 3 WAT, 8 GAI/HA, evaluation 1
  % CONTROL RICE: 0%
rice; 3 WAT, 8 GAI/HA, evaluation 2
  % CONTROL RICE: 0%
rice; 3 WAT, 8 GAI/HA, evaluation 3
  % CONTROL RICE: 0%
rice; 4 WAT, 2 GAI/HA, evaluation 1
  % CONTROL RICE: 0%
rice; 4 WAT, 2 GAI/HA, evaluation 2
  % CONTROL RICE: 0%
rice; 4 WAT, 2 GAI/HA, evaluation 3
  % CONTROL RICE: 0%
rice; 4 WAT, 3 GAI/HA, evaluation 1
  % CONTROL RICE: 0%
rice; 4 WAT, 3 GAI/HA, evaluation 2
  % CONTROL RICE: 10%
rice; 4 WAT, 3 GAI/HA, evaluation 3
  % CONTROL RICE: 0%
rice; 4 WAT, 4 GAI/HA, evaluation 1
  % CONTROL RICE: 20%
rice; 4 WAT, 4 GAI/HA, evaluation 2
  % CONTROL RICE: 20%
rice; 4 WAT, 4 GAI/HA, evaluation 3
  % CONTROL RICE: 0%
rice; 4 WAT, 6 GAI/HA, evaluation 1
  % CONTROL RICE: 20%
rice; 4 WAT, 6 GAI/HA, evaluation 2
  % CONTROL RICE: 20%
rice; 4 WAT, 6 GAI/HA, evaluation 3
  % CONTROL RICE: 0%
rice; 4 WAT, 8 GAI/HA, evaluation 1
  % CONTROL RICE: 20%
rice; 4 WAT, 8 GAI/HA, evaluation 2
  % CONTROL RICE: 20%
rice; 4 WAT, 8 GAI/HA, evaluation 3
  % CONTROL RICE: 0%
rice; 5 WAT, 2 GAI/HA, evaluation 1
  % CONTROL RICE: 10%
rice; 5 WAT, 2 GAI/HA, evaluation 2
  % CONTROL RICE: 0%
rice; 5 WAT, 2 GAI/HA, evaluation 3
  % CONTROL RICE: 0%
rice; 5 WAT, 3 GAI/HA, evaluation 1
  % CONTROL RICE: 10%
rice; 5 WAT, 3 GAI/HA, evaluation 2
  % CONTROL RICE: 0%
rice; 5 WAT, 3 GAI/HA, evaluation 3
  % CONTROL RICE: 0%
rice; 5 WAT, 4 GAI/HA, evaluation 1
  % CONTROL RICE: 30%
rice; 5 WAT, 4 GAI/HA, evaluation 2
  % CONTROL RICE: 0%
rice; 5 WAT, 4 GAI/HA, evaluation 3
  % CONTROL RICE: 0%
rice; 5 WAT, 6 GAI/HA, evaluation 1
  % CONTROL RICE: 0%
rice; 5 WAT, 6 GAI/HA, evaluation 2
  % CONTROL RICE: 0%
rice; 5 WAT, 6 GAI/HA, evaluation 3
  % CONTROL RICE: 0%
rice; 5 WAT, 8 GAI/HA, evaluation 1
  % CONTROL RICE: 30%
rice; 5 WAT, 8 GAI/HA, evaluation 2
  % CONTROL RICE: 10%
rice; 5 WAT, 8 GAI/HA, evaluation 3
  % CONTROL RICE: 0%
PS; 3 WAT, 2 GAI/HA, evaluation 1
  % CONTROL PS: 0%
PS; 3 WAT, 2 GAI/HA, evaluation 2
  % CONTROL PS: 0%
PS; 3 WAT, 2 GAI/HA, evaluation 3
  % CONTROL PS: 0%
PS; 3 WAT, 3 GAI/HA, evaluation 1
  % CONTROL PS: 0%
PS; 3 WAT, 3 GAI/HA, evaluation 2
  % CONTROL PS: 0%
PS; 3 WAT, 3 GAI/HA, evaluation 3
  % CONTROL PS: 0%
PS; 3 WAT, 4 GAI/HA, evaluation 1
  % CONTROL PS: 0%
PS; 3 WAT, 4 GAI/HA, evaluation 2
  % CONTROL PS: 0%
PS; 3 WAT, 4 GAI/HA, evaluation 3
  % CONTROL PS: 0%
PS; 3 WAT, 6 GAI/HA, evaluation 1
  % CONTROL PS: 0%
PS; 3 WAT, 6 GAI/HA, evaluation 2
  % CONTROL PS: 0%
PS; 3 WAT, 6 GAI/HA, evaluation 3
  % CONTROL PS: 0%
PS; 3 WAT, 8 GAI/HA, evaluation 1
  % CONTROL PS: 0%
PS; 3 WAT, 8 GAI/HA, evaluation 2
  % CONTROL PS: 0%
PS; 3 WAT, 8 GAI/HA, evaluation 3
  % CONTROL PS: 0%
PS; 4 WAT, 2 GAI/HA, evaluation 1
  % CONTROL PS: 0%
PS; 4 WAT, 2 GAI/HA, evaluation 2
  % CONTROL PS: 0%
PS; 4 WAT, 2 GAI/HA, evaluation 3
  % CONTROL PS: 0%
PS; 4 WAT, 3 GAI/HA, evaluation 1
  % CONTROL PS: 0%
PS; 4 WAT, 3 GAI/HA, evaluation 2
  % CONTROL PS: 0%
PS; 4 WAT, 3 GAI/HA, evaluation 3
  % CONTROL PS: 0%
PS; 4 WAT, 4 GAI/HA, evaluation 1
  % CONTROL PS: 0%
PS; 4 WAT, 4 GAI/HA, evaluation 2
  % CONTROL PS: 0%
PS; 4 WAT, 4 GAI/HA, evaluation 3
  % CONTROL PS: 0%
PS; 4 WAT, 6 GAI/HA, evaluation 1
  % CONTROL PS: 0%
PS; 4 WAT, 6 GAI/HA, evaluation 2
  % CONTROL PS: 0%
PS; 4 WAT, 6 GAI/HA, evaluation 3
  % CONTROL PS: 0%
PS; 4 WAT, 8 GAI/HA, evaluation 1
  % CONTROL PS: 0%
PS; 4 WAT, 8 GAI/HA, evaluation 2
  % CONTROL PS: 0%
PS; 4 WAT, 8 GAI/HA, evaluation 3
  % CONTROL PS: 0%
PS; 5 WAT, 2 GAI/HA, evaluation 1
  % CONTROL PS: 0%
PS; 5 WAT, 2 GAI/HA, evaluation 2
  % CONTROL PS: 0%
